Where “and” joins values, the source holds several entries; their conditions need not be identical. Identical values can stand only once.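 Cultured in 96-well plates, cells were exposed to test compound for 48 hours across five concentrations. At the GI50, growth is halved. TGI: concentration producing complete growth inhibition.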
Tests used:
Assay in all cases: NCI tumour cell line growth inhibition, 48 h
U251 CNS = tested on: U251 CNS
BT-549 breast = tested on: BT-549 breast
EKVX NSCLC = tested on: EKVX NSCLC
MALME-3M melanoma = tested on: MALME-3M melanoma
K-562 leukemia = tested on: K-562 leukemia
CCRF-CEM leukemia = tested on: CCRF-CEM leukemia
HCT-116 colon = tested on: HCT-116 colon
SF-295 CNS = tested on: SF-295 CNS
MCF7 breast = tested on: MCF7 breast
MDA-MB-231 breast = tested on: MDA-MB-231 breast

Row | SMILES | GI50 (U251 CNS) | TGI (U251 CNS) | TGI (BT-549 breast) | TGI (EKVX NSCLC) | TGI (MALME-3M melanoma) | GI50 (K-562 leukemia) | TGI (K-562 leukemia) | GI50 (CCRF-CEM leukemia) | TGI (CCRF-CEM leukemia) | GI50 (HCT-116 colon) | TGI (HCT-116 colon) | GI50 (SF-295 CNS) | TGI (MCF7 breast) | TGI (MDA-MB-231 breast) | GI50 (BT-549 breast) | GI50 (EKVX NSCLC) | GI50 (MALME-3M melanoma) | TGI (SF-295 CNS) | GI50 (MCF7 breast) | GI50 (MDA-MB-231 breast)
1 | O=c1cc(-c2cccc(F)c2)[nH]c2cc3c(cc12)OCO3 | 0.268 µM | 9.58 µM and 49.1 µM | > 100 µM | > 100 µM | > 72 µM | 0.338 µM | 75 µM and > 16.4 µM | 0.346 µM | 75 µM and > 10.8 µM | 0.22 µM | 2.91 µM and 15.7 µM | 0.141 µM | > 100 µM | 1.03 µM |  |  |  |  |  | 
2 | C=CC(=O)N[C@H]1C=C(C)c2c(-c3cnc4ccccc4c3)c3c(N)ncnc3n2C1 | 21.4 µM | 68.2 µM | 41.9 µM | 42.6 µM | 25.7 µM | 24.8 µM | > 100 µM | 22.3 µM | > 100 µM | 13.2 µM | 34.7 µM | 22.9 µM | > 100 µM | 27 µM | 12.5 µM | 0.0785 µM | 11.6 µM | 68 µM | 21.1 µM | 9.57 µM
3 | O=C(NNc1nc2c(F)cccc2n2cccc12)c1cnccn1 | 0.306 µM | 29.2 µM | 50.8 µM | 30 µM | > 77.1 µM | 0.478 µM | > 100 µM | 0.126 µM |  | 0.214 µM | 23.7 µM | 0.401 µM | 29.6 µM | 24.8 µM | 0.671 µM | 0.421 µM | 1.63 µM | 16 µM | 0.412 µM | 0.834 µM
4 | Cc1nn(-c2ccc(S(=O)(=O)[O-])cc2)c([O-])c1N=[N+](C)c1ccc(-c2ccc(N=Nc3ccc4c(S(=O)(=O)[O-])cc(S(=O)(=O)[O-])c(N)c4c3[O-])c([O-])c2)cc1[O-].[Cu+2].[Cu+2].[Na+] | > 100 µM | > 100 µM | > 100 µM | > 100 µM | > 100 µM | > 100 µM | > 100 µM | > 100 µM | > 100 µM | > 100 µM | > 100 µM | > 100 µM | > 100 µM | > 100 µM | > 100 µM | > 100 µM | > 100 µM | > 100 µM | > 100 µM | > 100 µM
5 | Fc1cccc(COc2ccc(Nc3ncncc3C#Cc3ccccc3)cc2Cl)c1 | > 25 µM | > 25 µM | > 25 µM | > 25 µM | > 25 µM | > 25 µM | > 25 µM | > 25 µM | > 25 µM | 24.4 µM | > 25 µM | > 25 µM | > 25 µM | > 25 µM | > 25 µM | 8.26 µM | > 25 µM | > 25 µM | > 25 µM | > 25 µM
6 | COc1ccc(C(=S)N2CCN(c3cccc(Cl)c3)CC2)cc1 | > 100 µM | > 100 µM | > 100 µM | > 100 µM | > 100 µM | 72.8 µM | > 100 µM | > 100 µM | > 100 µM | > 100 µM | > 100 µM | 95.9 µM | > 100 µM | > 100 µM | > 100 µM | 91.7 µM | > 100 µM | > 100 µM | 75 µM | 43.9 µM
7 | CC(C)(C)c1cc(O)c(O)c(C(C)(C)C)c1 | 4.35 µM | 16.1 µM | 21 µM | 17.5 µM | 9.71 µM | 2.47 µM | 7.44 µM | 2.33 µM | 7.49 µM | 1.83 µM | 3.41 µM | 3.53 µM | 12.8 µM | 23.2 µM | 8.71 µM | 3.76 µM | 3.13 µM | 14.4 µM | 3.45 µM | 8.55 µM
8 | COc1ccc(-c2nn(-c3cccc(Cl)c3)cc2C2CC(c3ccccc3)=NN2C(C)=O)cc1 (configuration not stated) | 3.15 µM | 14.9 µM | 19.7 µM | > 100 µM | 35.2 µM | > 100 µM | > 100 µM | > 100 µM | > 100 µM | 4.2 µM | > 100 µM | 5.96 µM | > 100 µM | > 100 µM | 3.23 µM | 8.75 µM | 4.87 µM | 40.6 µM | > 100 µM | 7.99 µM
9 | CSc1nc(SC)c2c(CN=[N+]=[N-])c(Br)n(Cc3ccccc3)c2n1 |  | > 100 µM | > 100 µM | > 100 µM | > 100 µM |  |  |  | > 100 µM |  | > 100 µM |  | > 100 µM | > 100 µM |  |  |  | > 100 µM |  | 
10 | C=C1C(O)C2CCC(C)(C)C(=O)C2=C(CC(C)C)C12CC2 (configuration not stated) | 43.4 µM | > 100 µM | > 100 µM | > 100 µM | > 100 µM | 31.9 µM | > 100 µM | 36.8 µM | > 100 µM | 37.2 µM | > 100 µM | 36.6 µM | > 100 µM | > 100 µM | > 100 µM | 78.7 µM | 35.6 µM | > 100 µM | 35 µM | 91.8 µM
11 | CC(=O)Nc1cccc(-n2c(=O)n(C3CC3)c(=O)c3c(Nc4ccc(I)cc4F)n(C)c(=O)c(C)c32)c1 | 0.401 µM | 32 µM and > 10 µM | 35.5 µM and > 10 µM | > 71 µM | < 0.01 µM | 0.0955 µM and 0.196 µM | > 100 µM | 9.15 µM and > 10 µM | > 100 µM | < 0.01 µM and 0.00986 µM | 12.5 µM and > 10 µM | 7.21 µM and > 10 µM | > 69.5 µM | 14 µM and > 10 µM | 6.33 µM and > 9.61 µM | 0.0135 µM and 0.0443 µM | < 0.01 µM and 0.00164 µM | 59.4 µM and > 10 µM | 12.1 µM and > 8.55 µM | 0.0345 µM
12 | COc1cccc(/C=C/C(=O)c2cc3c(N)c(C(=O)Nc4ccccc4C)sc3nc2C)c1 | 0.892 µM | 1.81 µM | 5.83 µM | 10.8 µM | 12.6 µM | 1.42 µM | > 50 µM | 1.33 µM | > 50 µM | 0.822 µM | 1.5 µM | 2.26 µM | 6.1 µM | 4.08 µM | 1.5 µM | 1.84 µM | 2.29 µM | 15.9 µM | 1.29 µM | 1.46 µM

Source: PubChem BioAssay (NCI)
